Laboratory results published in patent US11013696B2, “Lipids and lipid compositions for the delivery of active agents” (Novartis AG, priority 2013, dated 2021).

Experiments:
Format in all cases: physicochemical
[1] = Percent encapsulation of mRNA in lipid nanoparticles (Quant-iT Ribogreen); conditions: for % encapsulation mRNA Leptin: Table 2, leptin mRNA in LNP with the cationic lipid
Outline: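 LNPs made by T-junction mixing of ethanolic lipids (cationic lipid:DSPC:cholesterol:PEG lipid 40:10:38:2, N:P 4:1) with mRNA in citrate pH 5.8-6.0, then dialysed against PBS overnight at 4 °C. RiboGreen fluorescence (ex 480/em 520 nm) measured in TE ± 0.75% Triton X-100; encapsulation = (total − free)/total.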

[2] = Particle size and PDI of lipid nanoparticles by dynamic light scattering (Malvern Zetasizer)
Description: The lipid nanoparticles have a size of about 1 to about 2,500 nm, about 10 to about 1,500 nm, about 20 to about 1,000 nm, in a sub-embodiment about 50 to about 600 nm, in a sub-embodiment about 50 to about 400 nm, in a sub-embodiment about 50 to about 250 nm, and in a sub-embodiment about 50 to about 150 nm. Unless indicated otherwise, all sizes referred to herein are the average sizes (diameters) of the fully formed nanoparticle, as measured by dynamic light scattering on a Malvern Zetasizer. The nanoparticle sample is diluted in phosphate buffered saline (PBS) so that the count rate is approximately 200-400 kcts. The data is presented as a weighted average of the intensity measure.
Unless indicated otherwise, all PDIs referred to herein are the PDI of the fully formed nanoparticle, as measured by dynamic light scattering on a Malvern Zetasizer. The nanoparticle sample was diluted in phosphate buffered saline (PBS) so that the count rate was approximately 200-400 kcts. The data is presented in Table 3 as a weighted average of the intensity measure.
Unless indicated otherwise, all particle size measurements referred to in Table 3 are the Z-average particle size of the fully formed nanoparticle, as measured by dynamic light scattering on a Malvern Zetasizer. The nanoparticle sample was diluted in phosphate buffered saline (PBS) so that the count rate is approximately 200-400 kcts.

[3] = Entrapment and RNA concentration of RSV-F replicon liposomes (Quant-iT RiboGreen)
Protocol: RNA was encapsulated in liposomes made essentially by the method of Geall et al. (2012) PNAS vol. 109 (36): 14604-14609, Jeffs et al. (2005) Pharmaceutical Research 22 (3):362-372 and Maurer et al. (2001) Biophysical Journal, 80: 2310-2326 The liposomes were made of 10% DSPC (zwitterionic), 40% cationic lipid, 48% cholesterol and 2% PEG-conjugated DMG (2 kDa PEG). These proportions refer to the % moles in the total liposome.
Briefly, lipids were dissolved in ethanol (2 ml), a RNA replicon was dissolved in buffer (2 ml, 100 mM sodium citrate, pH 6) and these were mixed with 2 ml of buffer followed by 1 hour of equilibration. The mixture was then dialized overnight against 1×PBS. The resulting product contained liposomes, with ˜70-95% encapsulation efficiency. For in vitro and in vivo experiments formulations were diluted to the required RNA concentration with 1×PBS.
The percentage of encapsulated RNA and RNA concentration were determined by Quant-iT RiboGreen RNA reagent kit (Invitrogen), following manufacturer's instructions. The ribosomal RNA standard provided in the kit was used to generate a standard curve. Liposomes were diluted 10× or 100× in 1×TE buffer (from kit) before addition of the dye. Separately, liposomes were diluted 10× or 100× in 1×TE buffer containing 0.5% Triton X before addition of the dye (to disrupt the liposomes and thus to assay total RNA). Thereafter an equal amount of dye was added to each solution and then ˜180 μL of each solution after dye addition was loaded in duplicate into a 96 well tissue culture plate. The fluorescence (Ex 485 nm, Em 528 nm) was read on a microplate reader. All liposome formulations were dosed in vivo based on the encapsulated amount of RNA.
A self-replicating replicon encoding RSV F protein was administered to BALB/c mice, 8 animals per group, by bilateral intramuscular vaccinations (50 μL per leg) on days 0 and 21 with the replicon (0.1 and 1 ng) formulated as liposomes with the lipids described below. All liposomes tested were composed of 40% cationic lipid, 10% DSPC, 48% cholesterol and 2% PEG-DMG with similar amounts of RNA. The liposomes were all prepared using the same technique as described above.
% entrapment (% E), Concentration of RNA (Conc), particle size measured by DLS, and polydispersity reported by DLS of LNPs prepared with different cationic lipids

[4] = RSV-F replicon LNP prepared for 1st IM
[5] = RSV-F replicon LNP prepared for 2nd IM

% Encap. ([1]; Gluc mRNA) [%] | % Encap. ([1]; hFIX mRNA) [%] | % Encap. ([1]; hLeptin mRNA) [%] | PDI ([2]; FVII siRNA LNP) | Size ([2]; FVII siRNA LNP) [nm] | PDI ([2]; Gluc mRNA LNP) | Size ([2]; Gluc mRNA LNP) [nm] | PDI ([2]; hFIX mRNA LNP) | Size ([2]; hFIX mRNA LNP) [nm] | PDI ([2]; hLep plasmid LNP) | Size ([2]; hLep plasmid LNP) [nm] | PDI ([2]; hLeptin mRNA LNP) | Size ([2]; hLeptin mRNA LNP) [nm] | SMILES | % Encap. ([1]; FLuc mRNA) [%] | % encapsulation mRNA Leptin [1] [%] | % Encap. ([1]; mEPO mRNA) [%] | PDI ([2]; FLuc mRNA LNP) | Size ([2]; FLuc mRNA LNP) [nm] | PDI ([2]; mEPO mRNA LNP) | Size ([2]; mEPO mRNA LNP) [nm] | also measured
95.9 | 96.9 | 98.1 | 0.073 | 122.6 | 0.113 | 76.9 | 0.079 | 148.3 | 0.153 | 109.8 | 0.101 | 119.1 | CCCCC/C=C\C/C=C\CCCCCCCCC(CCC(=O)OC(COC(=O)CCCCCCC)COC(=O)CCCCCCC)OC(=O)OCCCN(C)C (centres unmarked) [Example 94, 2-(((13Z,16Z)-4-(((3-(dimethylamino)propoxy)carbonyl)oxy)docosa-13,16-dienoyl)oxy)propane-1,3-diyl dioctanoate] | 93.7 | 98.1 | 96.4 | 0.093 | 129.2 | 0.099 | 108.5 | PDI ([2]; pDNA LNP): 0.152; Size ([2]; pDNA LNP): 123.5 nm
 |  |  |  |  |  |  |  |  |  |  |  |  | CCCCCCCCCC(=O)OCCC(CC(CCCCCCCC)CCCCCCCC)OC(=O)OCCCN(C)C (centres unmarked) [Example 70, 3-(((3-(dimethylamino)propoxy)carbonyl)oxy)-5-octyltridecyl decanoate] |  | 98.3 |  |  |  |  |  | % E (% entrapment) [3, 4]: 90.75%; % E (% entrapment) [3, 5]: 94.24%
97.9 | 96.9 | 98.1 | 0.075 | 95.7 | 0.145 | 106.7 | 0.141 | 102.6 | 0.155 | 102.6 | 0.103 | 122.6 | CCCCCCCCCCCCC(CCOC(=O)CCCCC(OCCCCCCCC)OCCCCCCCC)OC(=O)OCCCN(CC)CC (centres unmarked) [Example 16, 3-(((3-(diethylamino)propoxy)carbonyl)oxy)pentadecyl 6,6-bis(octyloxy)hexanoate] | 96.8 | 97.7 | 97.9 | 0.145 | 106.7 | 0.112 | 83.2 | PDI ([2]; pDNA LNP): 0.128; Size ([2]; pDNA LNP): 101.6 nm
 |  |  |  |  |  |  |  |  |  |  |  |  | CCCCCCCCCCCCC(CCOC(=O)CCCCC(OCC(CC)CCCC)OCC(CC)CCCC)OC(=O)OCCCN(CC)CC (centres unmarked) [Example 18, 3-(((3-(diethylamino)propoxy)carbonyl)oxy)pentadecyl 6,6-bis((2-ethylhexyl)oxy)hexanoate] |  | 97.1 |  |  |  |  |  | % E (% entrapment) [3, 4]: 96.15%; % E (% entrapment) [3, 5]: 96.25%

SMILES | % Encap. ([1]; Gluc mRNA) [%] | % Encap. ([1]; hFIX mRNA) [%] | % Encap. ([1]; hLeptin mRNA) [%] | PDI ([2]; FVII siRNA LNP) | Size ([2]; FVII siRNA LNP) [nm] | PDI ([2]; Gluc mRNA LNP) | Size ([2]; Gluc mRNA LNP) [nm] | PDI ([2]; hFIX mRNA LNP) | Size ([2]; hFIX mRNA LNP) [nm] | PDI ([2]; hLep plasmid LNP) | Size ([2]; hLep plasmid LNP) [nm] | PDI ([2]; hLeptin mRNA LNP) | Size ([2]; hLeptin mRNA LNP) [nm] | % Encap. ([1]; FLuc mRNA) [%] | % encapsulation mRNA Leptin [1] [%] | % Encap. ([1]; mEPO mRNA) [%] | PDI ([2]; FLuc mRNA LNP) | Size ([2]; FLuc mRNA LNP) [nm] | PDI ([2]; mEPO mRNA LNP) | Size ([2]; mEPO mRNA LNP) [nm] | also measured
CCCCC/C=C\C/C=C\CCCCCCCC(=O)OCC(COC(=O)CCCCCCC/C=C\C/C=C\CCCCC)OC(=O)CCC(CCCCCCCCCCCC)OC(=O)OCCCN(C)C (centres unmarked) [Example 80, (9Z,9′Z,12Z,12′Z)-2-((4-(((3-(dimethylamino)propoxy)carbonyl)oxy)hexadecanoyl)oxy)propane-1,3-diyl bis(octadeca-9,12-dienoate)] |  |  |  | 0.051 | 97.3 |  |  |  |  |  |  |  |  | 85.3 |  | 96.2 | 0.085 | 193.5 | 0.083 | 166.0 | 
CCCCCCCCCCCCC(CCOC(=O)CCCCC(COC(=O)CCCCCCC)COC(=O)CCCCCCC)OC(=O)OCCCN(CC)CC (centres unmarked) [Example 1, 2-(10-dodecyl-3-ethyl-8,14-dioxo-7,9,13-trioxa-3-azaoctadecan-18-yl)propane-1,3-diyl dioctanoate] | 97.3 | 94.0 | 97.1 |  |  | 0.093 | 84.7 | 0.082 | 95.5 | 0.138 | 109.8 | 0.071 | 128.1 | 94.7 | 97.1 | 95.8 | 0.100 | 108.8 | 0.073 | 104.1 | PDI ([2]; pDNA LNP): 0.135; Size ([2]; pDNA LNP): 110 nm; % E (% entrapment) [3, 4]: 91.11%; % E (% entrapment) [3, 5]: 87.13%
